The values below come from patent publication US20180228871A1, “METHODS FOR THE MOBILIZATION AND USE OF T-CELLS WITH ENHANCED RECONSTITUTION POTENTIAL AND LIFE-SPAN” (GlycoMimetics, Inc., priority 2015, published 2018).

Data set [1] deals with HSC. The note with it: transient administration; cited from earlier work.
The test system of data set [2] is CD8+CD62Lhi CD44+ cells. As to the kind of experiment: G-CSF mobilization of blood leukocytes and T-cell subsets with GMI-1271 co-administration (flow cytometry of blood). The class given is in vivo, mice (C57bl/6). The note with it: C57bl/6 mice; for CD44+CD62hi CD4+ T-cells per uL blood: G-CSF administration, with or without GMI-1271 co-administration, FIG. 4B. The method, then: The following classification was used in the following experiments. Of all the CD8+ cells the Tnaive, population is CD62hi […]; the TCM/SCM population is CD62hi CD44+; and the TEM population is CD44+CD62^− population. An increase in the TCM/SCM mouse cell population is observed below (see FIGS. 1 through 6).
Cohorts of mice (C57bl/6 adult 10 week old males) were administered G-CSF (Filgastim, Amgen) at 125ug/kg/injection bidaily subcutaneous injections for a total of 72 hours before sacrifice (with non-mobilised control group #1 receiving saline injection instead).
The E-selectin mimetic antagonist GMI-1271 (bidaily intraperitoneal injections at 40 mg/kg/injection), was co-administered to these mice at specified timepoints prior to sacrifice with a final GMI-1271 injection always occurring exactly 1 hour prior to sacrifice. Generally all mice received injections at 9 am and 6 pm every day with n=4 per group. The injection groups are outlined in FIG. 1 and are detailed below.
The mouse groups were: Group 1. non-mobilised control, Group 2. G-CSF alone control, Group 3. 14 hours GMI-1271, Group 4. 24 hours GMI-1271, Group 5. 48 hours GMI-1271, Group 6. 72 hours GMI-1271
After 3 days (72 hours) G-CSF administration mice were euthanised administration and heparinised blood collected by cardiac puncture. Total blood leukocytes counts were enumerated using an automated haematological cell counter (Beckman-Coulter KX-21), For flow cytometry, red cells were first lysed using ammonium lysis then blood leukocytes washed in phosphate buffered saline (PBS) containing 2% fetal calf serum and incubated on ice in the presence of excess FcBlock (CD16/CD32 hybridoma 2.4G2 supernatant to block endogenous Fc receptors) following the methodology in Winkler et al., Nature Medicine 2012. Cells were stained using the antibodies CD4-pacific blue, CD8-peCY7, CD62L-BV605, CD44-AF700 at a final concentration of approx 5 million leukocytes per 100 uL volume containing 0.5 ug of each of the above conjugated monoclonal antibodies. All conjugated antibodies were purchased from Biolegend, CA. After 40 minutes incubation on ice, cells were washed to remove excess antibody (by addition of 1 mL PBS, centrifugation at 370×g for 5 minutes at 4 C, removal of supernatant and resuspension of pellet in 100 uL PBS with 2% fetal calf serum). Flow cytometry of cells was performed on the 8 colour CYAN (Beckman Coulter) using unstained blood and single colour controls to set voltages and gating strategy.
CD8+ Tcell subsets were divided based on CD62 and CD44 staining. With CD8+ naive T cells being CD62hi CD44−, CD8+T CM/SCM cells being CD62hi CD44+ double positive and TEM being CD44+ and CD62 negative following routine methodology.
Data was later analysed using the Flow Jo software and collated in excel software. Figures and statistics were by ANOVA using prism software.
On the technique in general: Flow cytometry measures light scatter and fluorescence of single cells or particles in a stream.

A short description of data set [3]: Mobilization of CCR7 cells by G-CSF and GMI-1271: PBMC counts and marker-positive cells by flow cytometry. The class given is in vivo, Mouse. The note with it: IP qdX3, blood PBMC. The method, then:
(§1) 1) Test Animals: • 1. Species: Mouse • 2. Strain: Balb/C and C57BV6 • 3. Age and gender 7-9 weeks, Female • 4. Source: Harlan Laboratories • 5. Total number: 25
(§2) G-CSF and GM-1271 in powder form. The test agents were reconstituted with saline 600 μg of G-CSF was dissolved in 6.5 mL of sterile saline giving a concentration of 92.307 μg/mL. Animals were administered with 0.1 mL of dose solution per time point giving the dose concentration for G-CSF was 9.23 μg per mouse per time point.
(§3) 70 mg of GM-1271 was reconstituted with 7 mL of sterile saline giving a concentration of 10 mg/mL. Animals were administered with 0.1 mL of dose solution per time point giving the dose concentration for GM-1271 was 1 mg per mouse per time point.
(§4) • To purify PBMCs, red blood cells (RBCs) in the whole blood were lysed using ACK Lysing Buffer (Life Technologies, A1049201). Whole blood was mixed with ACK Lysing Buffer at a 1: 25 ratio and incubated at room temperature on shaker for 5 min. The cells were centrifuged at 350 g for 7 min and the supernatant was discarded. The purified PBMCs were suspended in PBS containing 2% FBS. Cell counts were performed, pelleted at 250×g for 10 minutes and suspended in 5 ml HBSS containing containing Ca2+ and Mg2+(Life Technologies catalog #14025-092) plus 0.05% bovine serum albumin (BSA) to […] for antibody staining.
(§5) • Add 100 ul cells (2-3×10^5 cells) per tube (5 mL polypropylene round-bottom tubes (BD Falcon tubes #352063, VWR catalog #60819-728). Add indicated amounts of Alexa Fluor 488® labeled antibodies as indicated in Table 3 and immediately place on ice. • Place tubes at 4° C. for 1 hour then add 2 mL cold HBSS/BSA to each tube and pellet cells 250×g for 10 minutes. Pour off supernatant and suspend the cell pellet in 1 mL cold HBSS/BSA. Pellet cells 250×g for 10 minutes, pour off supernatant, and suspend cell pellet in 250 microliters HBSS/BSA. Add 250 microliters 2% formaldehyde (Polysciences, Inc. catalog #04018, 10% ultrapure, EM grade, methanol-free). Proceed to flow cytometry.
(§6) • Fluorescence was acquired via blue laser excitation at 488 nm with emission at 530 nm using preset lasers equipped on the Attune@ NxT Accoustic Focusing Cytometer (Life Technologies). 2×104 events were collected for each sample and analyzed with the use of the Attune® NxT Cytometric Software v2.1. Results were recorded as median fluorescent intensity, % cells positive for a given marker, and as cell concentration of expressing the specific marker per mL.
(§7) These experiments were done in both Balb/c (top table) and BL6 (bottom table) mouse strains.

Data set [4] has as its system CCR7+ cells. Described as above. The note with it: for CCR7 Cells/mL(10^5): IP qdX3, blood PBMC. The class given is in vivo, Mouse. As for the experimental part:
as §1, §2, §3, §4, §5, §6, §7

Data set [5] concerns HSCs. The note with it: E-selectin inhibition during HSC mobilization with G-CSF; cited from earlier work.
The conditions of data set [6]: in vivo; cited from earlier work.

For `C[C@@H]1O[C@@H](O[C@@H]2[C@@H](NC(=O)c3cc(=O)[nH]c(=O)[nH]3)C[C@@H](C(=O)NCCNC(=O)COCCOCC(=O)Nc3cc(S(=O)(=O)O)cc4cc(S(=O)(=O)O)cc(S(=O)(=O)O)c34)C[C@H]2O[C@@H]2O[C@H](CO)[C@H](O)[C@H](O[C@@H](CC3CCCCC3)C(=O)O)[C@H]2OC(=O)c2ccccc2)[C@@H](O)[C@H](O)[C@@H]1O` [GMI-1070], the HSC self-renewal result in data set [1] is on record as “promotes HSC self-renewal”.

Regarding `CC[C@H]1C[C@@H](C(=O)NCCNC(=O)CCOCCOCCOCCOCCOCCOCCOCCOCCOCCOCCOCCOC)C[C@@H](O[C@@H]2O[C@H](CO)[C@H](O)[C@H](O[C@@H](CC3CCCCC3)C(=O)[O-])[C@H]2NC(C)=O)[C@@H]1O[C@@H]1O[C@@H](C)[C@@H](O)[C@@H](O)[C@@H]1O.[Na+]` [GMI-1271], the “Total leukocytes per uL blood, increase over G-CSF 3 days alone” value in data set [2] (24 hr administration of GMI-1271 with 72 h G-CSF, FIG. 2) is reported as about 1.5 fold. Also, the “CD44+CD62hi CD8+ Tcells per uL blood” value in data set [2] (24 hrs GMI-1271 co-administration with G-CSF, FIG. 5B) is given as “significantly increased”. Moreover, the “CD44+CD62hi CD4+ T-cells per uL blood” value in data set [2] is reported as “does not appear to boost their numbers in blood”. Further, the “CD4+ Tcells per uL blood” value in data set [2] (G-CSF with GMI-1271 co-administration, FIG. 4A) is on record as “no change”. The “CD8+ Tcells per uL blood” value in data set [2] (G-CSF with GMI-1271 co-administration, FIG. 5A) is “no changes”. Moreover, the “Total T-cells per uL blood (CD4+ and CD8+ combined)” value in data set [2] (GMI-1271 co-administration with G-CSF, FIG. 3) is recorded as “No change”. In data set [3] (BL6 mice (bottom table)), the “CD4 Cells/mL(10^5)” value is given as 0.43 10^5 cells/mL, the “CD8 Cells/mL(10^5)” value was 1.74 10^5 cells/mL, the “CD44 Cells/mL(10^5)” value is given as 3.56 10^5 cells/mL and the “CD62L Cells/mL(10^5)” value was 0.19 10^5 cells/mL. Moreover, in data set [3] (BL6 mice (bottom table)), the “Total cells/mL (10^6 + SD)” value is recorded as 1.89 ± 0.40 10^6 cells/mL. In data set [3] (Balb/c mice (top table)), the “CD4 Cells/mL(10^5)” value was 1.56 10^5 cells/mL, the “CD8 Cells/mL(10^5)” value was 0.49 10^5 cells/mL, the “CD44 Cells/mL(10^5)” value is reported as 4.76 10^5 cells/mL and the “CD62L Cells/mL(10^5)” value was 0.74 10^5 cells/mL. Also, the “Total cells/mL (10^6 + SD)” value in data set [3] (Balb/c mice (top table)) is 1.01 ± 0.46 10^6 cells/mL. Further, in data set [4] (BL6 mice (bottom table)), the “CCR7 Cells/mL(10^5)” value is 0.23 10^5 cells/mL. The “CCR7 Cells/mL(10^5)” value in data set [4] (Balb/c mice (top table)) is given as 1.68 10^5 cells/mL. Further, in data set [4] (addition of GMI-1271 to G-CSF, both Balb/c and BL6 strains), the “mobilization of CCR7+ cells” value is reported as “increases the mobilization of CCR7+ cells”. Further, the “reconstitution potential of mobilized HSCs” value in data set [5] was about 25 fold.

B1: G-CSF: granulocyte-colony stimulating factor, a glycoprotein; Example I used Filgastim (Amgen) (protein, UniProt P09919 31-207, looked up)
Granulocyte …: TPLGPASSLPQSFLLKCLEQVRKIQGDGAALQEKLVSECATYKLCHPEELVLLGHSLGIPWAPLSSCPSQALQLAGCLSQLHSGLFLYQGLLQALEGISPELGPTLDTLQLDVADFATTIWQQMEELGMAPALQPTQGAMPAFASAFQRRAGGVLVASHLQSFLEVSYRVLRHLAQP
modifications: filgrastim
Regarding B1, the “CD44+CD62hi CD4+ T-cells per uL blood” value in data set [2] is “appear to be decreased”. In data set [3] (BL6 mice (bottom table)), the “CD4 Cells/mL(10^5)” value is 1.10 10^5 cells/mL, the “CD8 Cells/mL(10^5)” value is on record as 10.00 10^5 cells/mL, the “CD44 Cells/mL(10^5)” value is on record as 12.65 10^5 cells/mL and the “CD62L Cells/mL(10^5)” value is listed as 0.09 10^5 cells/mL. Moreover, the “Total cells/mL (10^6 + SD)” value in data set [3] (BL6 mice (bottom table)) was 5.98 ± 2.25 10^6 cells/mL. Further, in data set [3] (Balb/c mice (top table)), the “CD4 Cells/mL(10^5)” value was 3.43 10^5 cells/mL, the “CD8 Cells/mL(10^5)” value is recorded as 1.32 10^5 cells/mL, the “CD44 Cells/mL(10^5)” value is listed as 14.88 10^5 cells/mL and the “CD62L Cells/mL(10^5)” value is recorded as 1.59 10^5 cells/mL. Besides, the “Total cells/mL (10^6 + SD)” value in data set [3] (Balb/c mice (top table)) is 2.67 ± 0.64 10^6 cells/mL. Also, the “CCR7 Cells/mL(10^5)” value in data set [4] (BL6 mice (bottom table)) is reported as 0.60 10^5 cells/mL. For the same molecule, the “CCR7 Cells/mL(10^5)” value in data set [4] (Balb/c mice (top table)) is recorded as 4.00 10^5 cells/mL.

B2: Filgrastim: recombinant G-CSF expressed by E. coli, 175 amino acids, 19 kD, amino terminus methionine (protein, UniProt P09919 31-207, looked up)
Granulocyte …: B1 Granulocyte …
modifications: filgrastim, N-terminal Met
As to B2, in data set [6], the half-life was 3.5 h.

B3: Pegfilgrastim: Filgrastim with pegylation (20 kD-PEG) modification on the N terminal (protein, UniProt P09919 31-207, looked up)
Granulocyte …: B1 Granulocyte …
modifications: N-terminal 20 kDa PEG; pegfilgrastim
On to B3, for which the half-life in data set [6] is 15 to 80 h.

Usually half-life stands for how long it takes for the measured level to halve.
